Results as given in patent publication US20140314819A1, “COMPOSITIONS AND METHODS FOR TREATING DENTAL CONDITIONS” (HILL'S PET NUTRITION, INC., priority 2011, published 2014).

Key:
[1] = tested on: oral substrate accumulation (dental plaque, calculus, and tooth stain); test: Twelve month feeding study in cats: oral substrate accumulation by Logan-Boyce quantification; assay type: in vivo, domestic cats; conditions: composition comprising 1.2% lactic acid fed to cats for six months
Description: This study was designed to assess the effect of lactic acid on oral substrate accumulation (dental plaque, calculus, and tooth stain) in cats. Initially, all cats received a professional dental prophylaxis at this baseline using standard, well-established procedures. Six and twelve months later, dental substrate accumulation (dental plaque, calculus, and tooth stain) was quantified using the Logan-Boyce quantification method (See Logan E I, Boyce. Oral health assessment in dogs: parameters and methods. J. Vet Dent; 11(2):58-63.) Plaque is measured by applying a disclosing solution (2% aqueous eosin) to the animal's teeth. The teeth to be scored are divided into gingival and occlusal halves, and each half is assigned a separate numerical score for plaque coverage (percentage of the tooth area stained) and thickness (intensity of staining) The score for each tooth half is calculated by multiplying the coverage and thickness scores. The gingival and occlusal scores are then added together for a tooth score. The sum of the teeth scores is identified as the total tooth score, and the whole mouth mean score is calculated by averaging the total teeth scores for each animal. The plaque scoring method gives a number of 0-4 by the percentage of plaque coverage with 0=no plaque detected, 1=1-24% coverage, 2=25-49% coverage, 3=50-74% coverage and 4=75-100% coverage. […]

[2] = tested on: oral substrate accumulation (dental plaque, calculus, and tooth stain); test: 28 day feeding study in dogs: oral substrate accumulation by Logan-Boyce quantification; assay type: in vivo, beagle dogs; conditions: dog food comprising 1.5% lactic acid fed to dogs for one month
Description: Plaque is measured by applying a disclosing solution (2% aqueous eosin) to the animal's teeth. The teeth to be scored are divided into gingival and occlusal halves, and each half is assigned a separate numerical score for plaque coverage (percentage of the tooth area stained) and thickness (intensity of staining) The score for each tooth half is calculated by multiplying the coverage and thickness scores. The gingival and occlusal scores are then added together for a tooth score. The sum of the teeth scores is identified as the total tooth score, and the whole mouth mean score is calculated by averaging the total teeth scores for each animal. The plaque scoring method gives a number of 0-4 by the percentage of plaque coverage with 0=no plaque detected, 1=1-24% coverage, 2=25-49% coverage, 3=50-74% coverage and 4=75-100% coverage. […] The whole mouth score is calculated by adding the teeth scores and dividing by the number of teeth scored. Calculus is measured by air-drying the teeth to be scored, dividing those teeth vertically into mesial, buccal, and distal thirds, and assigning each third a numerical score based on the percentage of calculus coverage with 0=no calculus detected, 1=1-24% coverage, 2=25-49% coverage, 3=50-74% coverage, and 4=75-100% coverage. […] The whole mouth score is calculated by adding the teeth scores and dividing by the number of teeth scored. […]

## CC(O)C(=O)O (centres unmarked) [lactic acid]
[1]
  Effect on formation of dental plaque, calculus and stain (in words): inhibits formation of dental plaque, calculus and stain
[2]
  Effect on tooth calculus and stain (in words): inhibits tooth calculus and stain
